The text below walks through data of patent US20110152194A1, “CHIMERIC NATRIURETIC POLYPEPTIDES AND METHODS FOR INHIBITING CARDIAC REMODELING” (MAYO FOUNDATION FOR MEDICAL EDUCATION AND RESEARCH, priority 2008, published 2011).

The subject of series [1] is normal anesthetized dogs. The conditions noted are these: dog, in vivo.
Series [2] deals with male mongrel dogs. The series can be described thus: In vivo actions of CD-NP, CNP and CNP-C continuous i.v. infusion in anesthetized dogs. More on the design: species or system dog. The conditions noted are these: for ANG II, angiotensin II / Aldosterone / CO, cardiac output / DFRNa, distal fractional reabsorption of Na+ / GFR, glomerular filtration rate / MAP, mean arterial pressure / PAP, pulmonary arterial pressure / PCWP, pulmonary capillary wedge pressure / PFRNa, proximal fractional reabsorption of Na+ / PRA, plasma renin activity / PVR, pulmonary vascular resistance / RAP, right atrial pressure / RBF / RVR, renal vascular resistance / SVR, systemic vascular resistance: dogs, 75 min i.v. infusion of CD-NP 50 ng/kg/min or equimolar CNP.

For series [3] the following is noted: in vivo; cited from earlier work.

Where “and” joins values, the source holds several entries; their conditions need not be identical. Equal values may be shown once. Read-outs that look alike come from different tables or passages of the source.

Take B-type natriuretic peptide [BNP]: the GFR result in series [1] is “lack of increase”.

Regarding GLSKGCFGLKLDRIGSMSGLGC [CNP], in series [2] (30 min I), the “ANG II, angiotensin II” value amounted to 7.5 ± 1.4 pg/mL; the Aldosterone is reported as 21.1 ± 3.8 ng/dL; the “CO, cardiac output” value worked out at 3.3 ± 0.3 L/min; the “DFRNa, distal fractional reabsorption of Na+” value is given as 97 ± 0.4%. In addition, in series [2] (30 min I), the “GFR, glomerular filtration rate” value was determined as 52.7 ± 6.7 mL/min; the “MAP, mean arterial pressure” value was found to be 127 ± 4 mmHg; the “PAP, pulmonary arterial pressure” value amounted to 12.8 ± 0.8 mmHg; the “PCWP, pulmonary capillary wedge pressure” value was 4.6 ± 0.5 mmHg. In series [2] (30 min I), the “PFRNa, proximal fractional reabsorption of Na+” value amounted to 73 ± 2%; the “PRA, plasma renin activity” value came to 1.9 ± 0.6 ng/mL/h; the “PVR, pulmonary vascular resistance” value worked out at 1.9 ± 0.2 mmHgL^−1 · min; the “RAP, right atrial pressure” value was found to be 2.5 ± 0.3 mmHg. Moreover, in series [2] (30 min I), the RBF worked out at 294.2 ± 30.8 mL/min; the “RVR, renal vascular resistance” value is given as 0.47 ± 0.06 × 10^−3 mmHg · L^−1 · min; the “SVR, systemic vascular resistance” value worked out at 39.9 ± 2.7 mmHgL^−1 · min. Moreover, in series [2] (60 min I), the “ANG II, angiotensin II” value amounted to 10.4 ± 2.8 pg/mL; the Aldosterone is recorded as 21.4 ± 3.7 ng/dL; the “CO, cardiac output” value amounted to 2.8 ± 0.3 L/min; the “DFRNa, distal fractional reabsorption of Na+” value was 97 ± 0.9%. In series [2] (60 min I), the “GFR, glomerular filtration rate” value is given as 49.5 ± 4.2 mL/min; the “MAP, mean arterial pressure” value amounted to 128 ± 4 mmHg; the “PAP, pulmonary arterial pressure” value came to 13.2 ± 0.7 mmHg; the “PCWP, pulmonary capillary wedge pressure” value stood at 5.6 ± 0.7 mmHg. Besides, in series [2] (60 min I), the “PFRNa, proximal fractional reabsorption of Na+” value is 72 ± 1%; the “PRA, plasma renin activity” value stood at 2.5 ± 0.7 ng/mL/h; the “PVR, pulmonary vascular resistance” value worked out at 2.1 ± 0.3 mmHgL^−1 · min; the “RAP, right atrial pressure” value turned out to be 2.9 ± 0.3 mmHg. Further, in series [2] (60 min I), the RBF is reported as 277.8 ± 29.2 mL/min; the “RVR, renal vascular resistance” value is 0.49 ± 0.06 × 10^−3 mmHg · L^−1 · min; the “SVR, systemic vascular resistance” value is recorded as 46.9 ± 2.7^† mmHgL^−1 · min. In series [2] (Post-I), the “ANG II, angiotensin II” value came out at 14.4 ± 5.0 pg/mL; the Aldosterone is reported as 22.0 ± 4.2 ng/dL; the “CO, cardiac output” value was 2.6 ± 0.1 L/min; the “DFRNa, distal fractional reabsorption of Na+” value is listed as 97 ± 0.8%. Further, in series [2] (Post-I), the “GFR, glomerular filtration rate” value is on record as 48.8 ± 5.6 mL/min; the “MAP, mean arterial pressure” value worked out at 128 ± 4 mmHg; the “PAP, pulmonary arterial pressure” value was determined as 13.9 ± 0.7 mmHg; the “PCWP, pulmonary capillary wedge pressure” value worked out at 6.4 ± 0.8 mmHg. Moreover, in series [2] (Post-I), the “PFRNa, proximal fractional reabsorption of Na+” value amounted to 73 ± 2%; the “PRA, plasma renin activity” value was found to be 3.2 ± 1.0 ng/mL/h; the “PVR, pulmonary vascular resistance” value is on record as 2.2 ± 0.4 mmHgL^−1 · min; the “RAP, right atrial pressure” value was determined as 3.5 ± 0.5 mmHg. For the same substance, in series [2] (Post-I), the RBF is recorded as 272.0 ± 24.5 mL/min; the “RVR, renal vascular resistance” value is 0.49 ± 0.06 × 10^−3 mmHg · L^−1 · min; the “SVR, systemic vascular resistance” value is given as 48.7 ± 2.5^† mmHgL^−1 · min. Further, in series [2] (Pre-I (pre-infusion)), the “ANG II, angiotensin II” value was 11.7 ± 4.7 pg/mL; the Aldosterone stood at 15.1 ± 4.2 ng/dL; the “CO, cardiac output” value turned out to be 3.8 ± 0.3 L/min; the “DFRNa, distal fractional reabsorption of Na+” value was 98 ± 0.6%. In addition, in series [2] (Pre-I (pre-infusion)), the “GFR, glomerular filtration rate” value is 52.2 ± 5.3 mL/min; the “MAP, mean arterial pressure” value is recorded as 123 ± 4 mmHg; the “PAP, pulmonary arterial pressure” value turned out to be 13.1 ± 0.8 mmHg; the “PCWP, pulmonary capillary wedge pressure” value was determined as 5.0 ± 0.5 mmHg. Also, in series [2] (Pre-I (pre-infusion)), the “PFRNa, proximal fractional reabsorption of Na+” value is listed as 80 ± 3%; the “PRA, plasma renin activity” value came out at 2.9 ± 1.4 ng/mL/h; the “PVR, pulmonary vascular resistance” value was 1.8 ± 0.2 mmHgL^−1 · min; the “RAP, right atrial pressure” value turned out to be 2.6 ± 0.3 mmHg. In addition, in series [2] (Pre-I (pre-infusion)), the RBF worked out at 273.4 ± 25.5 mL/min; the “RVR, renal vascular resistance” value was 0.49 ± 0.07 × 10^−3 mmHg · L^−1 · min; the “SVR, systemic vascular resistance” value is 33.8 ± 2.9 mmHgL^−1 · min. Also, the half-life entry in series [3] was “about a minute and a half”.

On to GLSKGCFGLKLDRIGSMSGLGCGKSLG [CNP-C], for which, in series [2] (dog, in vivo, iv), the “ANG II” value is “did not result in any significant changes”; the GFR entry is on record as “did not result in any significant changes”; the PRA result was “did not result in any significant changes”; the “Pulmonary capillary wedge pressure” value is 4.3±0.8 mmHg and 3.4±0.8 mmHg. Besides, in series [2] (dog, in vivo, iv), the diuresis result was “did not result in any significant changes”; the mean arterial pressure is 132±6 mmHg and 128±5 mmHg; the natriuresis result is given as “did not result in any significant changes”; the “plasma cGMP” value was “did not result in any significant changes”. Also, the “urinary cGMP excretion” value in series [2] (dog, in vivo, iv) was “did not result in any significant changes”.

Regarding PSLRDPRPNAPSTSA [C-terminus], in series [1], the “DFRNa, distal fractional sodium reabsorption” value came out at 98.7 ± 0.3%; the “GFR, glomerular filtration rate” value was found to be 34 ± 6 mL/min; the “PFRNa, proximal fractional sodium reabsorption” value worked out at 77.9 ± 2.7%; the “RBF, renal blood flow” value is 213 ± 19 mL/min. Moreover, the “UcGMPV, urinary cGMP excretion” value in series [1] was determined as 1674 ± 213 pmol/min. In series [1] (iv), the “DFRNa, distal fractional sodium reabsorption” value amounted to 97.8 ± 0.5%; the “GFR, glomerular filtration rate” value turned out to be 44 ± 6 mL/min; the “PFRNa, proximal fractional sodium reabsorption” value amounted to 71.0 ± 2.6 %; the “RBF, renal blood flow” value was 198 ± 27 mL/min. Moreover, in series [1] (iv), the “UcGMPV, urinary cGMP excretion” value turned out to be 2275 ± 231 pmol/min; the “natriuretic and diuretic action (urinary excretion of sodium, urine flow)” value was “natriuretic and diuretic”.
